Source: US8846898B2, “Phosphinoamidite carboxylates and analogs thereof in the synthesis of oligonucleotide having reduced internucleotide charge” (Lieure Cornu LLC, priority 2000, dated 2014)
[pace] = phosphonoacetate internucleotide linkage

What was measured:
[1] = system: Phosphodiesterase I from Crotalus adamanteu (snake venom phosphodiesterase)
DNase I = DNase I (Bos taurus, UniProt P00639)
Procedure: Radiolabeling of Oligodeoxynucleotides: ODNs were 5′ end-labeled using γ-^32P ATP and T4 polynucleotide kinase (Wu et al., “Purification and Sequence Analysis of Synthetic Oligodeoxyribonucleotides,” in Oligonucleotide Synthesis: A Practical Approach, Gait, Ed. (Oxford University Press, 1990)). […] The radiolabeled ODNs were purified by gel electrophoresis and ethanol precipitation.
Endonuclease Stability: Endonuclease digestion experiments were carried out using DNase I (Boehringer-Mannheim). The assays were performed using a mixture of oligodeoxynucleotide labeled with ^32P at the 5′-end (100,000 cpm) and unlabeled oligodeoxynucleotide (40 pmol) in a buffer containing 40 mM Tris-HCl, pH 7.5, 6 mM MgCl2. Slight excess of the complementary DNA strand (1.2 eq.) was added and the mixture was heated to 95° C. for 5 minutes then chilled on ice for 30 minutes. Enzyme was added to a final concentration of 1 unit/μl (40 μl total reaction volume). The reaction mixture was overlayed with 25 μl of mineral oil and incubated at 37° C. Aliquots (3.5 μl) were removed and quenched by adding 7M urea in TBE buffer (12 μl) and heating to 95° C. for 5 minutes. […]
The mixtures were heated to 95° C. for 5 minutes followed by slow cooling and incubation on ice for 30 minutes. The mixture was equilibrated to room temperature, DNase I added, and the reaction monitored as a function of time. […]

E. coli RNaseH1 = E. coli RNaseH1 (Escherichia coli, UniProt P0A7Y4); assay: Hydrolysis of RNA heteroduplexes with E. coli RNaseH1; assay type: biochemical; settings: 5′-32P RNA, two units RNaseH1, four hours at 37° C.
Chain of E. coli RNaseH1 (P0A7Y4 whole entry): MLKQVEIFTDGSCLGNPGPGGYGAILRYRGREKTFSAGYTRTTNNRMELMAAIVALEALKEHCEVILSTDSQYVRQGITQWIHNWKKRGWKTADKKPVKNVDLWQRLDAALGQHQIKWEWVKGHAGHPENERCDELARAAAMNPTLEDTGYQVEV

Chain of DNase I (P00639 23-282): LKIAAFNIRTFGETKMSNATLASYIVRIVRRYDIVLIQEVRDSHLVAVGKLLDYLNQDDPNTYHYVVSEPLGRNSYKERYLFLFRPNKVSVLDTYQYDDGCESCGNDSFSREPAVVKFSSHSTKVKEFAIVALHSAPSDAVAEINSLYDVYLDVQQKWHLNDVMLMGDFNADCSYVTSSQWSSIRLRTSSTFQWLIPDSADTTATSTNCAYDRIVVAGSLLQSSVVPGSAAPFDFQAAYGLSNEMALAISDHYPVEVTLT

Row | Substance | degradation / hydrolysis products observed on exposure to SVP [1] | degradation / hydrolysis products observed on incubation with DNase I (DNase I) | RNA degraded (converted to hydrolysis products) in the presence of the oligonucleotide and RNaseH1 (E. coli RNaseH1) | time to complete degradation by DNase I (DNase I) [h]
1 | phosphonoacetate ODN: 18-mer mixed sequence ODN 5′-CTCAAGTGGGCTGGTGAC-3′ containing internucleotide phosphonoacetate linkages (DNA, all [pace], methylation of C not given here) | No detectable degradation products | no degradation products | approximately 66% | 
2 | phosphodiester ODN: 18-mer mixed sequence ODN 5′-CTCAAGTGGGCTGGTGAC-3′ containing internucleotide phosphodiester linkages (unmodified DNA) (unmodified DNA) [reference compound] |  |  |  | ≤ 1
